From ChEMBL document CHEMBL1124168 (J Med Chem, 1988)

Columns and labels:
[1] = test system: Canis familiaris; test: Antagonist activity was measured by maximum urine flow with a dose of 100 ug/kg peptide; format: functional, Canis lupus familiaris
[2] = test system: Canis familiaris; test: Antagonist activity was measured by maximum urine osmolality with a dose of 100 ug/kg peptide after pretreatment with indomethacin in dog; format: functional, Canis lupus familiaris
[3] = organism: Sus scrofa; test: (§1) In vitro antagonist activity was measured by inhibition of binding of [3H]LVP to renal medullary membrane preparation in pig; format: functional; conditions: Renal medulla
[4] = test system: Rattus norvegicus; test: […] antagonist activity was measured by dose required to lower urine osmolality to 300 mOsm/kg of H2O; format: functional
[5] = biological target: Vasopressin V2 receptor (Sus scrofa, UniProt P32307); test: In vitro antagonist activity was measured by inhibition of vasopressin-stimulated adenylate cyclase in renal medullary preparation in pig; format: functional, tissue-based, Renal medulla
[6] = biological target: Vasopressin V2 receptor (Homo sapiens, UniProt P30518); test: In vitro antagonist activity was measured by inhibition of vasopressin-stimulated adenylate cyclase in renal medullary preparation in human; format: functional, tissue-based, Renal medulla
[7] = test system: Canis familiaris; test: Antagonist activity was measured by maximum urine osmolality with a dose of 100 ug/kg peptide after pretreatment with indomethacin ([…]) in dog; format: functional, Canis lupus familiaris
[8] = test system: Canis familiaris; test: Agonist activity was measured as maximum urine osmolality with a dose of 100 ug/kg peptide after pretreatment with indomethacin in dog
[9] = test system: Rattus norvegicus; test: […] antagonist activity is measured by dose required to lower urine osmolality to 300 mOsm/kg of H2O; format: functional
[10] = biological target: Vasopressin V2 receptor (Sus scrofa) (UniProt P32307); test: as §1; format: tissue-based; conditions: Renal medulla
[11] = biological target: Adenylate cyclase; test: In vitro antagonist activity was measured by inhibition of vasopressin-stimulated adenylate cyclase in renal medullary preparation in human

Chain of Vasopressin V2 receptor (Homo sapiens, UniProt P30518) (P30518 whole entry): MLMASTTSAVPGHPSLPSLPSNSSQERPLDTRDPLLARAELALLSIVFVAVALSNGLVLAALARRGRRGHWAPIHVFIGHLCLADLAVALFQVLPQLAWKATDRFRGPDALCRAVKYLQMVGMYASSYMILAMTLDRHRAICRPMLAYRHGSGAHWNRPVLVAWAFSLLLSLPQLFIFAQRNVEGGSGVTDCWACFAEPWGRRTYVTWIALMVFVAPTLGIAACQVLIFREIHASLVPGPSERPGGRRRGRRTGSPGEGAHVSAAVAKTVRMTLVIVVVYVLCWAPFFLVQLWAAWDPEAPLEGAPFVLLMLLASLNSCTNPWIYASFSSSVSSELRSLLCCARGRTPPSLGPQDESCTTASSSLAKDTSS
Chain of Vasopressin V2 receptor (Sus scrofa, UniProt P32307) (P32307 whole entry): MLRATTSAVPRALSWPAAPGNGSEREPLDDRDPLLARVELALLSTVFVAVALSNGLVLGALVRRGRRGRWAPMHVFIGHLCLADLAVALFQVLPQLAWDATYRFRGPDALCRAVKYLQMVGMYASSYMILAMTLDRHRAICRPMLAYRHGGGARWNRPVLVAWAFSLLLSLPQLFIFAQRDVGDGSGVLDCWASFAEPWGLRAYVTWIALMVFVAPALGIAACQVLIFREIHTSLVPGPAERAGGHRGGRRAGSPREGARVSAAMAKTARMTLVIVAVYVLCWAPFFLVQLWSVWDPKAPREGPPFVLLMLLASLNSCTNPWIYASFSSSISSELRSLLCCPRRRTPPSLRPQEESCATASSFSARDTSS
Chain of Vasopressin V2 receptor (Sus scrofa) (P32307 whole entry): as above

| Structure (SMILES) | Volume [1] [mL/min] | U osm [2] [mOsmol kg-1] | Kb [3] [nM] | ED300 [4] [mg/kg] | Ki [6] [nM] | also measured |
| --- | --- | --- | --- | --- | --- | --- |
| COc1ccc2c(c1)c(CC(=O)O)c(C)n2C(=O)c1ccc(Cl)cc1 [INDOMETHACIN] | 2.8 | 92 |  |  |  |  |
| CCOc1ccc(C[C@H]2NC(=O)CC3(CCCCC3)SSCC(C(=O)N[C@@H](CCCN=C(N)N)C(=O)N[C@H](CCCN=C(N)N)C(N)=O)NC(=O)[C@H](CC(N)=O)NC(=O)[C@H](C(C)C)NC(=O)[C@H](Cc3ccccc3)NC2=O)cc1 (some centres not stated) | 0.76 | 429 | 5.4 | 0.0135 | 2.4 | Ki [5]: 1.6 nM |
| N=C(N)NCCC[C@H](NC(=O)[C@@H]1CCCN1C(=O)[C@@H]1CSSC[C@H](N)C(=O)N[C@@H](Cc2ccc(O)cc2)C(=O)N[C@@H](Cc2ccccc2)C(=O)N[C@@H](CCC(N)=O)C(=O)N[C@@H](CC(N)=O)C(=O)N1)C(=O)NCC(N)=O [VASOPRESSIN] | 1.4 |  |  |  |  | U osm [7]: 939 mOsmol kg-1 |
| CCOc1ccc(C[C@H]2NC(=O)CC3(CCCCC3)SSC[C@@H](C(=O)N3CCC[C@H]3C(=O)N[C@@H](CCCN=C(N)N)C(N)=O)NC(=O)[C@H](CC(N)=O)NC(=O)[C@H](C(C)C)NC(=O)[C@H](Cc3ccccc3)NC2=O)cc1 | 0.07 | 1302 |  | 0.0084 |  |  |
| CCOc1ccc(C[C@H]2NC(=O)CC3(CCCCC3)CCC[C@@H](C(=O)N3CCC[C@H]3C(=O)N[C@@H](CCCN=C(N)N)C(N)=O)NC(=O)[C@H](CC(N)=O)NC(=O)[C@H](C(C)C)NC(=O)[C@H](Cc3ccccc3)NC2=O)cc1 [listing 1 of 2 here] | 0.69 |  |  | 0.0122 |  | U osm [8]: 319 mOsmol kg-1 |
| CCOc1ccc(C[C@H]2NC(=O)CC3(CCCCC3)CCCC(C(=O)N[C@@H](CCCN=C(N)N)C(=O)N[C@H](CCCN=C(N)N)C(N)=O)NC(=O)[C@H](CC(N)=O)NC(=O)[C@H](C(C)C)NC(=O)[C@H](Cc3ccccc3)NC2=O)cc1 (some centres not stated) | 4.6 | 56 | 5.1 | 0.009 | 3.9 |  |
| CCOc1ccc(C[C@H]2NC(=O)CC3(CCCCC3)SSCC(C(=O)N[C@@H](CCCN=C(N)N)C(N)=O)NC(=O)[C@H](CC(N)=O)NC(=O)[C@H](C(C)C)NC(=O)[C@H](Cc3ccccc3)NC2=O)cc1 (some centres not stated) |  |  | 10.2 |  | 1.5 | ED300 [9]: 0.058 mg/kg; Ki [5]: 2.9 nM |
| CCOc1ccc(C[C@H]2NC(=O)CC3(CCCCC3)SSCC(C(=O)N3CCC[C@@H]3C(=O)N[C@@H](CCCN=C(N)N)C(N)=O)NC(=O)[C@H](CC(N)=O)NC(=O)[C@H](C(C)C)NC(=O)[C@H](Cc3ccccc3)NC2=O)cc1 (some centres not stated) |  |  | 11.8 |  |  |  |
| CCOc1ccc(C[C@H]2NC(=O)CC3(CCCCC3)CCCC(C(=O)N[C@@H](CCCN=C(N)N)C(N)=O)NC(=O)[C@H](CC(N)=O)NC(=O)[C@H](C(C)C)NC(=O)[C@H](Cc3ccccc3)NC2=O)cc1 (some centres not stated) |  |  |  |  |  | ED300 [9]: 0.028 mg/kg; Kb [10]: 14 nM; Ki [11]: 4.4 nM |
| CCOc1ccc(C[C@H]2NC(=O)CC3(CCCCC3)CCC[C@@H](C(=O)N3CCC[C@H]3C(=O)N[C@@H](CCCN=C(N)N)C(N)=O)NC(=O)[C@H](CC(N)=O)NC(=O)[C@H](C(C)C)NC(=O)[C@H](Cc3ccccc3)NC2=O)cc1 [listing 2 of 2 here] |  |  |  |  | 2.7 | Ki [5]: 3.5 nM |
| CCOc1ccc(C[C@H]2NC(=O)CC3(CCCCC3)CCCC(C(=O)N3CCC[C@@H]3C(=O)N[C@@H](CCCN=C(N)N)C(N)=O)NC(=O)[C@H](CC(N)=O)NC(=O)[C@H](C(C)C)NC(=O)[C@H](Cc3ccccc3)NC2=O)cc1 (some centres not stated) |  |  | 7.1 |  |  |  |
